# Test results reported in PubChem BioAssay AID2060882 (Molecular Pharmacology Branch, DTP, NCI, 2025).
# Tested on: 898857-211-R-J1-PDC complex spheroids, growth % test/control
# Assay: Anticancer human tumor 898857-211-R-J1-PDC patient-derived melanoma cell line growth inhibition [RAS]
# Conditions: for IC50: curve of first compound; for viability, T/C: stronger effect = lower value
# Method in brief: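 Agents were tested in combination matrices in half-log decrements from a top concentration at or near clinical Cmax (10 microM if undetermined). Targets were multi-cell spheroids of tumour lines plus HUVEC and MSC stromal cells.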
# [1] = second compound 0.00316 µM, first compound 0.0316 µM
# [2] = second compound 0.00316 µM, first compound 0.1 µM
# [3] = second compound 0.01 µM, first compound 0.0316 µM
# [4] = second compound 0.01 µM, first compound 0.1 µM
# [5] = second compound 0.0316 µM, first compound 0.0316 µM
# [6] = second compound 0.0316 µM, first compound 0.1 µM
# [7] = second compound 0.1 µM, first compound 0.0316 µM
# [8] = second compound 0.1 µM, first compound 0.1 µM
# [9] = second compound 0.316 µM, first compound 0.0316 µM
# [10] = second compound 0.316 µM, first compound 0.1 µM
# [11] = second compound 1 µM, first compound 0.0316 µM
# [12] = second compound 1 µM, first compound 0.1 µM
# 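Note: spheroids exposed to compound for seven days before readout.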
# 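Throughout, for viability, T/C: 100% = DMSO vehicle control wells.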
structure (smiles),measurement,setting,value
CC(C)NCC(C(=O)N1CCN(c2ncnc3c2C(C)CC3O)CC1)c1ccc(Cl)cc1 (centres undefined) + C=CC(=O)N1CCN(c2nc(OCC3CCCN3C)nc3c(F)c(-c4nc(N)cc(C)c4C(F)(F)F)c(Cl)cc23)C(C)C1,IC50,second compound 0.00316 µM,> 10000 nM
same,IC50,second compound 0.01 µM,> 10000 nM
same,IC50,second compound 0.0316 µM,> 10000 nM
same,IC50,second compound 0.1 µM,> 10000 nM
same,IC50,second compound 0.316 µM,> 10000 nM
same,IC50,second compound 1 µM,> 10000 nM
same,"viability, T/C",[1],108%
same,"viability, T/C",[2],99.8%
same,"viability, T/C","second compound 0.00316 µM, first compound 0.316 µM",97.5%
same,"viability, T/C","second compound 0.00316 µM, first compound 1 µM",89.2%
same,"viability, T/C","second compound 0.00316 µM, first compound 3.16 µM",81.2%
same,"viability, T/C","second compound 0.00316 µM, first compound 10 µM",70.1%
same,"viability, T/C",[3],101%
same,"viability, T/C",[4],104%
same,"viability, T/C","second compound 0.01 µM, first compound 0.316 µM",104%
same,"viability, T/C","second compound 0.01 µM, first compound 1 µM",85.8%
same,"viability, T/C","second compound 0.01 µM, first compound 3.16 µM",85.9%
same,"viability, T/C","second compound 0.01 µM, first compound 10 µM",70.7%
same,"viability, T/C",[5],111%
same,"viability, T/C",[6],101%
same,"viability, T/C","second compound 0.0316 µM, first compound 0.316 µM",114%
same,"viability, T/C","second compound 0.0316 µM, first compound 1 µM",103%
same,"viability, T/C","second compound 0.0316 µM, first compound 3.16 µM",78.9%
same,"viability, T/C","second compound 0.0316 µM, first compound 10 µM",60.8%
same,"viability, T/C",[7],118%
same,"viability, T/C",[8],110%
same,"viability, T/C","second compound 0.1 µM, first compound 0.316 µM",102%
same,"viability, T/C","second compound 0.1 µM, first compound 1 µM",88.8%
same,"viability, T/C","second compound 0.1 µM, first compound 3.16 µM",91.8%
same,"viability, T/C","second compound 0.1 µM, first compound 10 µM",66.7%
same,"viability, T/C",[9],114%
same,"viability, T/C",[10],129%
same,"viability, T/C","second compound 0.316 µM, first compound 0.316 µM",126%
same,"viability, T/C","second compound 0.316 µM, first compound 1 µM",112%
same,"viability, T/C","second compound 0.316 µM, first compound 3.16 µM",93.3%
same,"viability, T/C","second compound 0.316 µM, first compound 10 µM",71.4%
same,"viability, T/C",[11],116%
same,"viability, T/C",[12],121%
same,"viability, T/C","second compound 1 µM, first compound 0.316 µM",117%
same,"viability, T/C","second compound 1 µM, first compound 1 µM",112%
same,"viability, T/C","second compound 1 µM, first compound 3.16 µM",97.5%
same,"viability, T/C","second compound 1 µM, first compound 10 µM",70.4%
CC(C)n1nc(-c2ccc3oc(N)nc3c2)c2c(N)ncnc21 + C=CC(=O)N1CCN(c2nc(OCC3CCCN3C)nc3c(F)c(-c4nc(N)cc(C)c4C(F)(F)F)c(Cl)cc23)C(C)C1,IC50,second compound 0.00316 µM,28.8 nM
same,IC50,second compound 0.01 µM,33.6 nM
same,IC50,second compound 0.0316 µM,26.9 nM
same,IC50,second compound 0.1 µM,35 nM
same,IC50,second compound 0.316 µM,34.5 nM
same,IC50,second compound 1 µM,37.9 nM
same,"viability, T/C","second compound 0.00316 µM, first compound 0.000316 µM",103%
same,"viability, T/C","second compound 0.00316 µM, first compound 0.001 µM",96.3%
same,"viability, T/C","second compound 0.00316 µM, first compound 0.00316 µM",99.6%
same,"viability, T/C","second compound 0.00316 µM, first compound 0.01 µM",75.9%
same,"viability, T/C",[1],48.5%
same,"viability, T/C",[2],19.9%
same,"viability, T/C","second compound 0.01 µM, first compound 0.000316 µM",107%
same,"viability, T/C","second compound 0.01 µM, first compound 0.001 µM",95.1%
same,"viability, T/C","second compound 0.01 µM, first compound 0.00316 µM",92.1%
same,"viability, T/C","second compound 0.01 µM, first compound 0.01 µM",77.9%
same,"viability, T/C",[3],49.9%
same,"viability, T/C",[4],21.3%
same,"viability, T/C","second compound 0.0316 µM, first compound 0.000316 µM",108%
same,"viability, T/C","second compound 0.0316 µM, first compound 0.001 µM",99.9%
same,"viability, T/C","second compound 0.0316 µM, first compound 0.00316 µM",91.7%
same,"viability, T/C","second compound 0.0316 µM, first compound 0.01 µM",77.5%
same,"viability, T/C",[5],44.2%
same,"viability, T/C",[6],20.4%
same,"viability, T/C","second compound 0.1 µM, first compound 0.000316 µM",104%
same,"viability, T/C","second compound 0.1 µM, first compound 0.001 µM",102%
same,"viability, T/C","second compound 0.1 µM, first compound 0.00316 µM",97.4%
same,"viability, T/C","second compound 0.1 µM, first compound 0.01 µM",85%
same,"viability, T/C",[7],52.7%
same,"viability, T/C",[8],19.8%
same,"viability, T/C","second compound 0.316 µM, first compound 0.000316 µM",116%
same,"viability, T/C","second compound 0.316 µM, first compound 0.001 µM",103%
same,"viability, T/C","second compound 0.316 µM, first compound 0.00316 µM",109%
same,"viability, T/C","second compound 0.316 µM, first compound 0.01 µM",89.3%
same,"viability, T/C",[9],52.4%
same,"viability, T/C",[10],20.8%
same,"viability, T/C","second compound 1 µM, first compound 0.000316 µM",122%
same,"viability, T/C","second compound 1 µM, first compound 0.001 µM",115%
same,"viability, T/C","second compound 1 µM, first compound 0.00316 µM",111%
same,"viability, T/C","second compound 1 µM, first compound 0.01 µM",84.5%
same,"viability, T/C",[11],56%
same,"viability, T/C",[12],22.7%
